According to patent US20240277829A1, “HIV-1 VACCINATION AND SAMT-247 MICROBICIDE TO PREVENT HIV-1 INFECTION” (priority 2021, published 2024):

Key:
Assay type in all cases: cell-based
human NK cells = test: Zinc intensity by confocal microscopy
Experimental: Zinc intensity. NKG2A^+ NK cells were isolated from cryopreserved healthy human PBMCs. NK cells were labeled with APC anti-NKG2A (Z199, cat. #A60797) from Beckman coulter, followed by separation with APC MicroBeads (#130-090-855, Miltenyi Biotec Inc.) using manufacturer instructions. Subsequently NK cells were cultured in the presence or absence of SAMT-247 and/or PMA stimulation for 7 hours. Cells were plated on ibidi chamber slides. Cells were washed and treated with zinc chelator or remained untreated for 30 minutes according to the manufacturers' recommendation using a cell-based Zinc assay kit (cat. #ab241014, Abcam). Subsequently cells were washed and stained with Zinc probe-green (cat. #ab241014, Abcam) and DAPI (Molecular Probes, Waltham, MA, USA) was used to visualize nuclei. Signals were visualized with a confocal laser-scanning microscope (Leica SP8, Buffalo Grove, IL, USA). Image processing was performed using the Imaris 9.2.1 software.

CD14^+ monocytes = test: Zinc chelation: macaque blood monocytes, SAMT-247 and/or gp120 peptides with or without TPEN
Experimental: (§1) Zinc chelation: The frequencies and cytokine levels of NK cells, monocytes and T cells were measured in macaque blood. Cryopreserved PBMCs were thawed and cultured in R10 in the presence/or absence of SAMT-247 and/or gp120 peptides for 12 hours. Cells were incubated with or without Zinc chelator TPEN (cat. #P4413-100 MG, 5 μM) for 12 h. Subsequently, cells were stained for live cells with Live/Dead Blue dye (cat. #L34962, 0.5 μl) from Thermofisher; followed by surface staining with the following: Alexa 700 anti-CD3 (SP34-2; cat. #557917, 5 μl), BV711 anti-CD4 (L200; cat. #563913, 5 μl), BB700 anti-CD8 (RPA-T8; cat. #566452, 5 μl), BUV737 anti-CD20 (2H7; cat. #612848, 5 μl), PE anti-CD45 (D058-1283; cat. #552833, 5 μl), BV786 anti-CCR5 (3A9; cat. #565001, 5 μl), BV496 anti-CD16 (3G8; cat. #612944, 5 μl), BUV661 anti-HLA-DR (G46-6; cat. #612980, 5 μl), BUV805 anti-CD14 (M5E2; cat. #565779, 5 μl) from BD Biosciences; APC-H7 anti-CD11b (ICRF44; cat. #47-0118-42, 5 μl), PE-Cy5 anti-CD95 (ICRF44; cat. #15-0959-42, 5 μl) from eBioscience; APC anti-α4β7, provided by the NIH Nonhuman Primate Reagent Resource (R24 OD010976, and NIAID contract HHSN272201300031C); BV605 anti-CCR6 (G034E3; cat. #353420, 5 μl), BV650 anti-CXCR3 (G025H7; cat. #353730, 5 μl), from Biolegend and PE-Cy7 anti-NKG2A (Z199; cat. #B10246, 5 μl) from Beckman coulter for 30 minutes at room temperature. This was followed by permeabilization with a FOX3-transcription buffer set (cat. #00-5523-00) from eBioscience according to the manufacture's recommendation and subsequently intracellular staining with the following: BV750 anti-TNF-α (MAB11; cat. #566359, 5 μl), BUV395 anti-IFN-γ (B27; cat. #563563, 5 μl), BV510 anti-GranB (GB11; cat. #563388, 5 μl), BV421 anti-IL-10 (JES3-9D7; cat. #564053, 5 μl), PE-CF594 anti-Ki67 (B56; cat. #567120, 5 μl) from BD Biosciences and FITC anti-Perforin (pf-344; cat. #3465-7, 5 μl) from MABTECH for 30 minutes at room temperature. Flow cytometry acquisitions were performed on a FACSYMPHONY™ A5 and examined using FACSDIVA™ software (BD Biosciences).

Th1 and Th2 cells = test: Zinc chelation: macaque blood T cells, SAMT-247 and/or gp120 peptides with or without TPEN; details: for frequency of IFN-γ^+ Th1^+ cells / frequency of IFN-γ^+ Th1^+CCR5^+α4β7^+ cells / frequency of IFN-γ^+ Th1^+CCR5^−α4β7^− cells / frequency of IFN-γ^+ Th2^+ cells / frequency of IFN-γ^+ Th2^+CCR5^+α4β7^+ cells / frequency of IFN-γ^+ Th2^+CCR5^−α4β7^− cells / frequency of IL-10^+ Th1^+ cells / frequency of IL-10^+ Th1^+CCR5^+α4β7^+ cells / frequency of IL-10^+ Th1^+CCR5^−α4β7^− cells / frequency of IL-10^+ Th2^+ cells / frequency of IL-10^+ Th2^+CCR5^+α4β7^+ cells / frequency of IL-10^+ Th2^+CCR5^−α4β7^− cells / frequency of TNF-α^+ Th1^+ cells / frequency of TNF-α^+ Th1^+CCR5^+α4β7^+ cells / frequency of TNF-α^+ Th1^+CCR5^−α4β7^− cells / frequency of TNF-α^+ Th2^+ cells / frequency of TNF-α^+ Th2^+CCR5^+α4β7^+ cells: with vs without zinc chelator
Experimental: as §1

NKG2A^+ NK cells = test: Intracellular cytokines of human blood NK cells using SAMT-247 and PMA stimulation with or without zinc chelator; details: PMA stimulation with or without SAMT-247, presence of TPEN
Experimental: Intracellular cytokines of Human blood NK cells using SAMT-247 and PMA stimulation with or without zinc chelator. The levels of NKG2A^+ NK cells were measured in blood of healthy humans. Human PBMCs were thawed and cultured in R10 in the presence or absence of SAMT-247 and/or PMA for 12 hours. Cells were incubated with or without Zinc chelator TPEN (cat. #P4413-100 MG, 5 μM) for 12 h. Subsequently, PBMCs were surface stained with the following: BUV737 anti-CD3 (SP34-2; cat. #741872, 5 μl), Alexa700 anti-CD20 (2H7; cat. #560631, 5 μl), BV786 anti-CD45 (HI30; cat. #563716, 5 μl) from BD Biosciences; APC-H7 anti-CD11b (ICRF44; cat. #47-0118-42, 5 μl) from eBioscience and PE-Cy7 anti-NKG2A (Z199; cat. #B10246, 5 μl) from Beckman coulter for 30 minutes at room temperature. This was followed by permeabilization with FOX3-transcription buffer set (cat. #00-5523-00) from eBioscience according to the manufacture's recommendation and subsequently intracellular staining with the following: BV750 anti-TNF-α (MAB11; cat. #566359, 5 μl), BUV396 anti-IFN-γ (B27; cat. #563563, 5 μl), BV510 anti-GranB (GB11; cat. #563388, 5 μl) from BD Biosciences; and FITC anti-Perforin (pf-344; cat. #3465-7, 5 μl) from MABTECH for 30 minutes at room temperature. Flow cytometry acquisitions were performed on a FACSymphony A5 and examined using FACSDIVA™ software (BD Biosciences).

NKG2A^+ cells = test: Zinc chelation: macaque blood NK cells, SAMT-247 and/or gp120 peptides with or without TPEN; details: for frequency of IFN-γ^+ NKG2A^+ cells / frequency of TNF-α^+ NKG2A^+ cells: with vs without zinc chelator
Experimental: as §1

[1] = SAMT-247, with vs without zinc chelator
[2] = gp120 pooled peptide + SAMT-247, with vs without zinc chelator
[3] = gp120 pooled peptide, with vs without zinc chelator
[4] = gp120 pooled peptides ± SAMT-247, TPEN treatment
[5] = gp120 pooled peptide + SAMT-247

c1ccc(CN(CCN(Cc2ccccn2)Cc2ccccn2)Cc2ccccn2)nc1 [Zinc chelator, N, N,N′,N′ tetrakis-(2-pyridyl-methyl) ethylendiamine]
significantly lower: zinc intensity of PMA+SAMT-247 stimulated cells vs not treated with chelator (human NK cells)
significantly decreased: IFN-γ and TNF-α expression in NKG2A^+ cells (NKG2A^+ cells; gp120 peptide and gp120 peptide/SAMT-247 treated cells, TPEN)
decreased percentage: percentage of CCR5^+α4β7^+ Th1 and Th2 cells (Th1 and Th2 cells; week 17, gp120 pooled peptides ± SAMT-247, TPEN)
No significant changes: SAMT-247's ability to increase granzyme B and perforin in NKG2A^+ cells (NKG2A^+ cells; gp120 peptide stimulation, presence of TPEN)
significantly reduced: IFN-γ and TNF-α expression in human NKG2A^+ cells (NKG2A^+ NK cells)
↓: frequency of CD14^+ cells (CD14^+ monocytes; [1]) | frequency of IL-10^+ CD14^+ cells (CD14^+ monocytes; [1]) | frequency of CD14^+ cells (CD14^+ monocytes; [2]) | frequency of IL-10^+ CD14^+ cells (CD14^+ monocytes; [2]) | frequency of CD14^+ cells (CD14^+ monocytes; [3]) | frequency of IL-10^+ CD14^+ cells (CD14^+ monocytes; [3]) | frequency of IFN-γ^+ Th1^+ cells (Th1 and Th2 cells; SAMT-247) | frequency of IFN-γ^+ Th1^+CCR5^+α4β7^+ cells (Th1 and Th2 cells; SAMT-247) | frequency of IFN-γ^+ Th1^+CCR5^−α4β7^− cells (Th1 and Th2 cells; SAMT-247) | frequency of IFN-γ^+ Th2^+ cells (Th1 and Th2 cells; SAMT-247) | frequency of IFN-γ^+ Th2^+CCR5^+α4β7^+ cells (Th1 and Th2 cells; SAMT-247) | frequency of IFN-γ^+ Th2^+CCR5^−α4β7^− cells (Th1 and Th2 cells; SAMT-247) | frequency of IL-10^+ Th1^+ cells (Th1 and Th2 cells; SAMT-247) | frequency of IL-10^+ Th1^+CCR5^+α4β7^+ cells (Th1 and Th2 cells; SAMT-247) | frequency of IL-10^+ Th1^+CCR5^−α4β7^− cells (Th1 and Th2 cells; SAMT-247) | frequency of IL-10^+ Th2^+ cells (Th1 and Th2 cells; SAMT-247) | frequency of IL-10^+ Th2^+CCR5^+α4β7^+ cells (Th1 and Th2 cells; SAMT-247) | frequency of IL-10^+ Th2^+CCR5^−α4β7^− cells (Th1 and Th2 cells; SAMT-247) | frequency of TNF-α^+ Th1^+ cells (Th1 and Th2 cells; SAMT-247) | frequency of TNF-α^+ Th1^+CCR5^+α4β7^+ cells (Th1 and Th2 cells; SAMT-247) | frequency of TNF-α^+ Th1^+CCR5^−α4β7^− cells (Th1 and Th2 cells; SAMT-247) | frequency of TNF-α^+ Th2^+ cells (Th1 and Th2 cells; SAMT-247) | frequency of TNF-α^+ Th2^+CCR5^+α4β7^+ cells (Th1 and Th2 cells; SAMT-247) | frequency of IFN-γ^+ Th1^+CCR5^+α4β7^+ cells (Th1 and Th2 cells; Unstim) | frequency of IL-10^+ Th1^+CCR5^+α4β7^+ cells (Th1 and Th2 cells; Unstim) | frequency of IL-10^+ Th1^+CCR5^−α4β7^− cells (Th1 and Th2 cells; Unstim) | frequency of IL-10^+ Th2^+CCR5^+α4β7^+ cells (Th1 and Th2 cells; Unstim) | frequency of TNF-α^+ Th2^+CCR5^+α4β7^+ cells (Th1 and Th2 cells; Unstim) | frequency of IFN-γ^+ Th1^+ cells (Th1 and Th2 cells; [5]) | frequency of IFN-γ^+ Th1^+CCR5^+α4β7^+ cells (Th1 and Th2 cells; [5]) | frequency of IFN-γ^+ Th1^+CCR5^−α4β7^− cells (Th1 and Th2 cells; [5]) | frequency of IFN-γ^+ Th2^+ cells (Th1 and Th2 cells; [5]) | frequency of IFN-γ^+ Th2^+CCR5^+α4β7^+ cells (Th1 and Th2 cells; [5]) | frequency of IFN-γ^+ Th2^+CCR5^−α4β7^− cells (Th1 and Th2 cells; [5]) | frequency of IL-10^+ Th1^+ cells (Th1 and Th2 cells; [5]) | frequency of IL-10^+ Th1^+CCR5^+α4β7^+ cells (Th1 and Th2 cells; [5]) | frequency of IL-10^+ Th1^+CCR5^−α4β7^− cells (Th1 and Th2 cells; [5]) | frequency of IL-10^+ Th2^+ cells (Th1 and Th2 cells; [5]) | frequency of IL-10^+ Th2^+CCR5^+α4β7^+ cells (Th1 and Th2 cells; [5]) | frequency of IL-10^+ Th2^+CCR5^−α4β7^− cells (Th1 and Th2 cells; [5]) | frequency of TNF-α^+ Th1^+CCR5^−α4β7^− cells (Th1 and Th2 cells; [5]) | frequency of TNF-α^+ Th2^+ cells (Th1 and Th2 cells; [5]) | frequency of TNF-α^+ Th2^+CCR5^+α4β7^+ cells (Th1 and Th2 cells; [5]) | frequency of IFN-γ^+ Th1^+CCR5^+α4β7^+ cells (Th1 and Th2 cells; gp120 pooled peptide) | frequency of IFN-γ^+ Th1^+CCR5^−α4β7^− cells (Th1 and Th2 cells; gp120 pooled peptide) | frequency of IFN-γ^+ Th2^+ cells (Th1 and Th2 cells; gp120 pooled peptide) | frequency of IFN-γ^+ Th2^+CCR5^+α4β7^+ cells (Th1 and Th2 cells; gp120 pooled peptide) | frequency of IL-10^+ Th1^+CCR5^+α4β7^+ cells (Th1 and Th2 cells; gp120 pooled peptide) | frequency of IL-10^+ Th1^+CCR5^−α4β7^− cells (Th1 and Th2 cells; gp120 pooled peptide) | frequency of IL-10^+ Th2^+CCR5^+α4β7^+ cells (Th1 and Th2 cells; gp120 pooled peptide) | frequency of IL-10^+ Th2^+CCR5^−α4β7^− cells (Th1 and Th2 cells; gp120 pooled peptide) | frequency of TNF-α^+ Th1^+ cells (Th1 and Th2 cells; gp120 pooled peptide) | frequency of TNF-α^+ Th1^+CCR5^+α4β7^+ cells (Th1 and Th2 cells; gp120 pooled peptide) | frequency of TNF-α^+ Th2^+CCR5^+α4β7^+ cells (Th1 and Th2 cells; gp120 pooled peptide) | frequency of IFN-γ^+ NKG2A^+ cells (NKG2A^+ cells; [5]) | frequency of TNF-α^+ NKG2A^+ cells (NKG2A^+ cells; [5]) | frequency of IFN-γ^+ NKG2A^+ cells (NKG2A^+ cells; gp120 pooled peptide) | frequency of TNF-α^+ NKG2A^+ cells (NKG2A^+ cells; gp120 pooled peptide)
decreased: IL-10 production by CD14^+ cells (CD14^+ monocytes; [4]) | frequency of CD14^+ cells (CD14^+ monocytes; [4]) | INF-γ and IL-10 production in Th2 CCR5^−α4β7^− cells (Th1 and Th2 cells; TPEN) | number of Th1 CCR5^−α4β7^− cells (Th1 and Th2 cells; week 17, gp120 pooled peptides ± SAMT-247, Zn chelation)
